Measured values published in patent US20090306053A1, “Highly selective rho-kinase inhibitor” (priority 2005, published 2009).
pIC50: −log10 of the molar value.

Key:
Type in all cases: biochemical
Purified bovine PKGα = target: T1, Purified bovine PKGα (Bos taurus, UniProt P00516); test: PKG kinase assay (Kinase-Glo ATP consumption); conditions: for pIC50: 1 μM ATP, read-out: Kinase Inhibiting Activity (IC50) PKG; for Realative Inhibitory Activity PKG: relative ratio to ROCKII (=1.0), based on IC50 values
T1 construct: Purified bovine PKGα (Promega); purchased Promega
T1 sequence (P00516 1-671): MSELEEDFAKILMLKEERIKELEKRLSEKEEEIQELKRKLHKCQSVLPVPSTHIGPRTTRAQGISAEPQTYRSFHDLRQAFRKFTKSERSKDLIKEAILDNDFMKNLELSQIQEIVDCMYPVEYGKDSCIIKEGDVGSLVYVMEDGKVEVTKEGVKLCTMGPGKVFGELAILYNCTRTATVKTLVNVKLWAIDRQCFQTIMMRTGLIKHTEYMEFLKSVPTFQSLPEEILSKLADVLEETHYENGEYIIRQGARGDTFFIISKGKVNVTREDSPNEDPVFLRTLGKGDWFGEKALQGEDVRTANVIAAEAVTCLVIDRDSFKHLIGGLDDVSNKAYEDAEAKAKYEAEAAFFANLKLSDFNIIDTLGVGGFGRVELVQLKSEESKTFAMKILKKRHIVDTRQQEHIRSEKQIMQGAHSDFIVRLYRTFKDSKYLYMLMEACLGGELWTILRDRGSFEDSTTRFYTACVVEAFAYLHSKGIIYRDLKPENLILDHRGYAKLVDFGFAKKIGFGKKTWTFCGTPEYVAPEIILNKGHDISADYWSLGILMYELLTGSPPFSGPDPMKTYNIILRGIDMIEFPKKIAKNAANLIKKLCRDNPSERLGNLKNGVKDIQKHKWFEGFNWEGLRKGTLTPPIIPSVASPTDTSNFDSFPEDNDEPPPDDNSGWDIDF
Method: Purified bovine PKGα (Promega) was used to evaluate its activity to phosphorylate a substrate peptide (RKISASEF, Promega).
(§1) In a system of the total volume of 50 μL, the reaction of the above-mentioned enzyme (64 ng) was carried out at room temperature for 80 minutes in the presence of 40 mM of Tris-HCl (pH 7.5), 20 mM of magnesium chloride, 10 μM of cGMP (Sigma), 100 μM of the above peptide, and 1 μM of ATP. After the kinase reaction, the luminescence intensity corresponding to the amount of ATP in the reaction system was measured using a luciferase reagent (Kinase-Glo Luminescent Kinase Assay kit, Promega) with a chemiluminescence measurement apparatus (MicroLumat, Berthold Technologies). The amount of ATP consumed by the phosphorylation reaction was calculated by comparison with the luminescence intensity in the system when the kinase reaction was not carried out.
(§2) With this system, the kinase reaction was carried out in the presence of a compound at various concentrations, and the IC50 value of the compound was determined based on the resulting compound concentration-response curve for ATP consumption.
(§3) The ROCKII-inhibiting activity of a compound to be tested was defined as 1.0, and the inhibitory activities of the compound against kinases (PKA, PKG, CaMKII, and AuroraA) other than ROCKII were calculated as relative ratios to the ROCKII-inhibiting activity, based on the IC50 values calculated using the above-described evaluation system.

Purified rat CaMKII [1] = target: T2, Purified rat CaMKII (Rattus norvegicus, UniProt P11275); test: CaMKII kinase assay (Kinase-Glo ATP consumption); conditions: 1 μM ATP; read-out: Kinase Inhibiting Activity (IC50) CaMKII
T2 construct: purchased Upstate
Method: (§4) Purified rat CaMKII (containing CaMKIIα and small amounts of β, γ, and δ isoforms, Upstate) was used to evaluate its activity to phosphorylate a substrate peptide (KKALRRQETVDAL, Upstate).
(§5) In a system of the total volume of 50 μL, the reaction of the above-mentioned enzyme (33 ng) was carried out at room temperature for 60 minutes in the presence of 50 mM of Tris-HCl (pH7.5), 10 mM of magnesium chloride, 2 mM of calcium chloride, 0.04 mg/mL of BSA, 16 μg/mL of purified bovine brain calmodulin (Sigma), 0.5 mM of DTT, 50 µM of the above peptide, and 1 μM of ATP. After the kinase reaction, the luminescence intensity corresponding to the amount of ATP in the reaction system was measured using a luciferase reagent (Kinase-Glo Luminescent Kinase Assay kit, Promega) with a chemiluminescence measurement apparatus (MicroLumat, Berthold Technologies). The amount of ATP consumed by the phosphorylation reaction was calculated by comparison with the luminescence intensity in the system when the kinase reaction was not carried out.
as §2, §3

Purified rat CaMKII [2] = test: CaMKII kinase assay (Kinase-Glo ATP consumption); conditions: relative ratio to ROCKII (=1.0), based on IC50 values
Method: as §4, §5, §2, §3

Recombinant human Src = target: T3, Recombinant human Src (Homo sapiens, UniProt P12931); test: Src kinase assay (Kinase-Glo ATP consumption); conditions: 0.5 μM ATP; read-out: Kinase Inhibiting Activity (IC50) Src
T3 construct: purchased Upstate
Method: Recombinant human Src (Upstate) was used to evaluate its activity to phosphorylate a substrate peptide (KVEKIGEGTYGVVYK, Upstate).
as §1, with “(6 Units)” for “(64 ng)”, “MOPS-NaOH” for “Tris-HCl”, “10” for “20”, “25 mM” for “10 μM”, “manganese chloride, 300” for “cGMP (Sigma), 100”, “0.5” for “1”
as §2

Compound	pIC50 (Purified bovine PKGα)	Realative Inhibitory Activity PKG (Purified bovine PKGα)	pIC50 (Purified rat CaMKII [1])	Realative Inhibitory Activity CaMKII (Purified rat CaMKII [2])	pIC50 (Recombinant human Src)
2-(S)-1-(4-fluoroisoquinoline-5-sulfonyl)-4-glycyl-2-methylhomopiperazine dihydrochloride [Example 1]	4.20	2117	4.64	763	< 4.00
CNCC(=O)N1CCCN(S(=O)(=O)c2cccc3cncc(F)c23)[C@@H](C)C1.Cl.Cl [Example 2, 2-(S)-1-(4-fluoroisoquinoline-5-sulfonyl)-2-methyl-4-(N-methylglycyl)homopiperazine dihydrochloride]	4.55	933	4.57	890	< 4.00
